According to patent publication US10105357B2, “Indication of antibiotic drugs for preparation of cancer inhibition pharmaceutical composition” (LAUNX BIOMEDICAL CO., LTD., priority 2014, dated 2018):
Where two headings read alike, the source gives them in different places.

Key:
Assay type in all cases: cell-based, human
[1] = test system: cancer cell lines; test: Cell viability analysis (WST-1) on cancer cell lines; conditions: drug 10 μM, 72 hours, WST-1; Table 3
[2] = test system: HI650 (Lung Adenocarcinoma); test: Cell viability analysis, lung cancer HI650
[3] = test system: A549 (Lung Adenocarcinoma); test: Cell viability analysis, lung cancer A549
[4] = test system: AGS (Gastric Adenocarcinoma); test: Cell viability analysis, gastric cancer AGS
[5] = test system: MKN-45 (Gastric Adenocarcinoma); test: Cell viability analysis, gastric cancer MKN-45
[6] = test system: LoVo (Colorectal Adenocarcinoma); test: Cell viability analysis, colon cancer LoVo; conditions: for cell viability (survival rate), LoVo: drug 10 μM, 72 hours, WST-1, OD450 nm
[7] = test system: A375 (Amelanotic Melanoma); test: Cell viability analysis, skin cancer A375
[8] = test system: BCC (basal cell carcinoma); test: Cell viability analysis, skin cancer BCC
[9] = test system: HeLa (Cervix Adenocarcinoma); test: Cell viability analysis, cervical cancer HeLa
[10] = test system: TSGH-8301 (Urinary Bladder Carcinoma); test: Cell viability analysis, bladder cancer TSGH-8301
[11] = test system: T24; test: Cell viability analysis, bladder cancer T24
[12] = test system: MCF7 (Mammary Gland, Adenocarcinoma); test: Cell viability analysis, breast cancer MCF7
[13] = test system: MDA-MB-231 (Mammary Gland, Adenocarcinoma); test: Cell viability analysis, breast cancer MDA-MB-231
[14] = test system: BxPC-3; test: Cell viability analysis, pancreatic cancer BxPC-3
[15] = test system: AsPC-1; test: Cell viability analysis, pancreatic cancer AsPC-1
[16] = test system: TOV-21G; test: Cell viability analysis, ovarian cancer TOV-21G
[17] = test system: SAS (Tongue squamous cell carcinoma); test: Cell viability analysis, tongue cancer SAS
[18] = test system: U-2OS; test: Cell viability analysis, osteosarcoma U-2OS
[19] = test system: 786-O (Renal adenocarcinoma); test: Cell viability analysis, renal cancer 786-O
[20] = test system: HL-60 (Acute Promyelocytic Leukemia); test: Cell viability analysis, leukemia HL-60; conditions: drug 10 μM, 72 hours, WST-1, OD450 nm
[21] = test system: HepG2 (Hepatocellular Carcinoma); test: Cell viability analysis, hepatic cancer HepG2
[22] = test system: C-33A (Cervical carcinoma); test: Cell viability analysis, cervical cancer C-33A
[23] = test system: NIH: OVCAR-3; test: Cell viability analysis, ovarian cancer NIH: OVCAR-3
[24] = test system: PC3 (p53−) (Prostate Adenocarcinoma); test: Cell viability analysis, prostate cancer PC3
[25] = drug 10 μM, 72 hours, WST-1, OD450 nm

## C[C@@H]1[C@H](O)[C@@H](C)/C=C/C=C/CC/C=C/C=C/C=C/C=C/C(O[C@H]2O[C@H](C)[C@@H](O)[C@H](N)[C@@H]2O)CC2O[C@](O)(CC(O)C(O)CCC(O)CC(O)CC(O)CC(=O)O[C@H]1C)CC(O)C2C(=O)O (stereo partly drawn) [Nystatin (Mycostatin), Nystatin]
[1]
  inhibition effect on different cancer cell lines: significant inhibition effect
[2]; H1650, repeated experiment
  The results of antibiotic drug inhibiting cancer cell lines (cell viability analysis), H1650: 72.42
[2]; [25]
  cell viability (survival rate), H1650: 65.4
[3]; A549, repeated experiment
  The results of antibiotic drug inhibiting cancer cell lines (cell viability analysis), A549: 94.3
[3]; [25]
  cell viability (survival rate), A549: 37.1
[4]; [25]
  cell viability (survival rate), AGS: 50.8
[5]; MKN-45, repeated experiment
  The results of antibiotic drug inhibiting cancer cell lines (cell viability analysis), MKN-45: 95.89
[5]; [25]
  cell viability (survival rate), MKN-45: 44.7
[6]
  cell viability (survival rate), LoVo: 70.9
[7]; A375, repeated experiment
  The results of antibiotic drug inhibiting cancer cell lines (cell viability analysis), A375: 99.37
[7]; [25]
  cell viability (survival rate), A375: 62.4
[8]; BCC, repeated experiment
  The results of antibiotic drug inhibiting cancer cell lines (cell viability analysis), BCC: 92.4
[9]; [25]
  cell viability (survival rate), HeLa: 59.2
[10]; TSGH-8301, repeated experiment
  The results of antibiotic drug inhibiting cancer cell lines (cell viability analysis), TSGH-8301: 91.24
[10]; [25]
  cell viability (survival rate), TSGH: 42.1
[11]; T24, repeated experiment
  The results of antibiotic drug inhibiting cancer cell lines (cell viability analysis), T24: 76.44
[12]; MCF-7, repeated experiment
  The results of antibiotic drug inhibiting cancer cell lines (cell viability analysis), MCF-7: 89.88
[12]; [25]
  cell viability (survival rate), MCF7: 46.4
[13]; MDA-MB231, repeated experiment
  The results of antibiotic drug inhibiting cancer cell lines (cell viability analysis), MDA-MB231: 86.09
[14]; BxPC-3, repeated experiment
  The results of antibiotic drug inhibiting cancer cell lines (cell viability analysis), BxPC-3: 69.94
[15]; AsPC-1, repeated experiment
  The results of antibiotic drug inhibiting cancer cell lines (cell viability analysis), AsPC-1: 75.83
[16]; TOV-21G, repeated experiment
  The results of antibiotic drug inhibiting cancer cell lines (cell viability analysis), TOV-21G: 74.99
[17]; SAS, repeated experiment
  The results of antibiotic drug inhibiting cancer cell lines (cell viability analysis), SAS: 97.09
[18]; U2OS, repeated experiment
  The results of antibiotic drug inhibiting cancer cell lines (cell viability analysis), U2OS: 76.11
[19]; 786-O, repeated experiment
  The results of antibiotic drug inhibiting cancer cell lines (cell viability analysis), 786-O: 89.48
[20]
  cell viability (survival rate), HL-60: 96.2

## CCCCCCCCCCCCCCCC[N+](C)(C)C.[Br-] [Cetrimonium Bromide]
[1]
  inhibition effect on different cancer cell lines: significant inhibition effect
[2]; [25]
  cell viability (survival rate), H1650: 54.6
[3]; A549, repeated experiment
  The results of antibiotic drug inhibiting cancer cell lines (cell viability analysis), A549: 20.71
[3]; [25]
  cell viability (survival rate), A549: 25.0
[4]; AGS, repeated experiment
  The results of antibiotic drug inhibiting cancer cell lines (cell viability analysis), AGS: 20.83
[4]; [25]
  cell viability (survival rate), AGS: 42.4
[5]; MKN-45, repeated experiment
  The results of antibiotic drug inhibiting cancer cell lines (cell viability analysis), MKN-45: 35.25
[21]; HepG2, repeated experiment
  The results of antibiotic drug inhibiting cancer cell lines (cell viability analysis), HepG2: 56.6
[6]; LoVo, repeated experiment
  The results of antibiotic drug inhibiting cancer cell lines (cell viability analysis), LoVo: 51.72
[6]
  cell viability (survival rate), LoVo: 55.4
[7]; A375, repeated experiment
  The results of antibiotic drug inhibiting cancer cell lines (cell viability analysis), A375: 12.93
[8]; BCC, repeated experiment
  The results of antibiotic drug inhibiting cancer cell lines (cell viability analysis), BCC: 23.59
[9]; HeLa, repeated experiment
  The results of antibiotic drug inhibiting cancer cell lines (cell viability analysis), HeLa: 20.73
[9]; [25]
  cell viability (survival rate), HeLa: 42.6
[22]; C-33A, repeated experiment
  The results of antibiotic drug inhibiting cancer cell lines (cell viability analysis), C-33A: 35.29
[10]; TSGH-8301, repeated experiment
  The results of antibiotic drug inhibiting cancer cell lines (cell viability analysis), TSGH-8301: 22.33
[10]; [25]
  cell viability (survival rate), TSGH: 34.8
[11]; T24, repeated experiment
  The results of antibiotic drug inhibiting cancer cell lines (cell viability analysis), T24: 19.1
[12]; MCF-7, repeated experiment
  The results of antibiotic drug inhibiting cancer cell lines (cell viability analysis), MCF-7: 47.47
[13]; MDA-MB231, repeated experiment
  The results of antibiotic drug inhibiting cancer cell lines (cell viability analysis), MDA-MB231: 33.73
[14]; BxPC-3, repeated experiment
  The results of antibiotic drug inhibiting cancer cell lines (cell viability analysis), BxPC-3: 25.89
[23]; NIH-OVCAR-3, repeated experiment
  The results of antibiotic drug inhibiting cancer cell lines (cell viability analysis), NIH-OVCAR-3: 56.47
[16]; TOV-21G, repeated experiment
  The results of antibiotic drug inhibiting cancer cell lines (cell viability analysis), TOV-21G: 15.69
[17]; SAS, repeated experiment
  The results of antibiotic drug inhibiting cancer cell lines (cell viability analysis), SAS: 21.73
[19]; 786-O, repeated experiment
  The results of antibiotic drug inhibiting cancer cell lines (cell viability analysis), 786-O: 16.85

## Colistimethate Sodium
[1]
  inhibition effect on different cancer cell lines: significant inhibition effect
[2]
  The results of antibiotic drug inhibiting cancer cell lines (cell viability analysis), H1650: 82.62
[3]
  The results of antibiotic drug inhibiting cancer cell lines (cell viability analysis), A549: 89.46
[4]
  The results of antibiotic drug inhibiting cancer cell lines (cell viability analysis), AGS: 87.05
[5]
  The results of antibiotic drug inhibiting cancer cell lines (cell viability analysis), MKN-45: 104.8
[21]
  The results of antibiotic drug inhibiting cancer cell lines (cell viability analysis), HepG2: 107.4
[6]
  The results of antibiotic drug inhibiting cancer cell lines (cell viability analysis), LoVo: 85.06
[7]
  The results of antibiotic drug inhibiting cancer cell lines (cell viability analysis), A375: 94.89
[8]
  The results of antibiotic drug inhibiting cancer cell lines (cell viability analysis), BCC: 77.04
[9]
  The results of antibiotic drug inhibiting cancer cell lines (cell viability analysis), HeLa: 77.79
[22]
  The results of antibiotic drug inhibiting cancer cell lines (cell viability analysis), C-33A: 107.5
[24]
  The results of antibiotic drug inhibiting cancer cell lines (cell viability analysis), PC-3: 101.1
[10]
  The results of antibiotic drug inhibiting cancer cell lines (cell viability analysis), TSGH-8301: 111.7
[11]
  The results of antibiotic drug inhibiting cancer cell lines (cell viability analysis), T24: 108.3
[12]
  The results of antibiotic drug inhibiting cancer cell lines (cell viability analysis), MCF-7: 74.61
[13]
  The results of antibiotic drug inhibiting cancer cell lines (cell viability analysis), MDA-MB231: 76.75
[14]
  The results of antibiotic drug inhibiting cancer cell lines (cell viability analysis), BxPC-3: 76.87
[15]
  The results of antibiotic drug inhibiting cancer cell lines (cell viability analysis), AsPC-1: 82.31
[23]
  The results of antibiotic drug inhibiting cancer cell lines (cell viability analysis), NIH-OVCAR-3: 103.4
[16]
  The results of antibiotic drug inhibiting cancer cell lines (cell viability analysis), TOV-21G: 64.02
[17]
  The results of antibiotic drug inhibiting cancer cell lines (cell viability analysis), SAS: 77.78
[18]
  The results of antibiotic drug inhibiting cancer cell lines (cell viability analysis), U2OS: 83.33
[19]
  The results of antibiotic drug inhibiting cancer cell lines (cell viability analysis), 786-O: 86.46

## CC(N)C12CC3CC(CC(C3)C1)C2 (stereo not drawn) [Rimantadine (Flumadine), Rimantadine]
[1]
  inhibition effect on different cancer cell lines: significant inhibition effect
[2]; Homo sapiens, NCI-H1650, 72 h, drug 10 μM, 72 hours, WST-1, OD450 nm, read-out: cell viability (survival rate), H1650
  viability at 10 µM: 96.9%
[3]; Homo sapiens, A549, 72 h, drug 10 μM, 72 hours, WST-1, OD450 nm, read-out: cell viability (survival rate), A549
  viability at 10 µM: 111%
[4]; Homo sapiens, 72 h, drug 10 μM, 72 hours, WST-1, OD450 nm, read-out: cell viability (survival rate), AGS
  viability at 10 µM: 90.8%
[5]; Homo sapiens, MKN-45, 72 h, drug 10 μM, 72 hours, WST-1, OD450 nm, read-out: cell viability (survival rate), MKN-45
  viability at 10 µM: 82.3%
[21]; Homo sapiens, HepG2, 72 h, drug 10 μM, 72 hours, WST-1, OD450 nm, read-out: cell viability (survival rate), HepG2
  viability at 10 µM: 87.7%
[6]; Homo sapiens, LoVo, 72 h, read-out: cell viability (survival rate), LoVo, drug 10 μM, 72 hours, WST-1, OD450 nm
  viability at 10 µM: 95.7%
[7]; Homo sapiens, A-375, 72 h, drug 10 μM, 72 hours, WST-1, OD450 nm, read-out: cell viability (survival rate), A375
  viability at 10 µM: 70.3%
[9]; Homo sapiens, HeLa, 72 h, drug 10 μM, 72 hours, WST-1, OD450 nm, read-out: cell viability (survival rate), HeLa
  viability at 10 µM: 71.1%
[24]; Homo sapiens, 72 h, drug 10 μM, 72 hours, WST-1, OD450 nm, read-out: cell viability (survival rate), PC3
  viability at 10 µM: 91.3%
[10]; Homo sapiens, 72 h, drug 10 μM, 72 hours, WST-1, OD450 nm, read-out: cell viability (survival rate), TSGH
  viability at 10 µM: 126%
[12]; Homo sapiens, MCF7, 72 h, drug 10 μM, 72 hours, WST-1, OD450 nm, read-out: cell viability (survival rate), MCF7
  viability at 10 µM: 97.1%
[20]; Homo sapiens, HL-60, 72 h, read-out: cell viability (survival rate), HL-60
  viability at 10 µM: 107%
